For 31 compounds, Ki results are on record in US8178522B2, “Thiazoles” (Hoffmann-La Roche Inc., priority 2009, dated 2012).

pKi: −log10 of the molar value.

The target of one test is T1, GABA A α5 (α5β3γ2) (Homo sapiens, UniProt P18507+P31644).
T1 construct: expressed in transfected cells; host or cells: HEK293, transiently transfected; membrane preparation
Description: [3H]flumazenil competition binding, human GABA A α5 receptor.
Details: not given
Here is the method: Membrane Preparation and Binding Assay
The affinity of compounds at GABA A receptor subtypes was measured by competition for [3H]flumazenil (85 Ci/mmol; Roche) binding to HEK293 cells expressing rat (stably transfected) or human (transiently transfected) receptors of compositional α1β3γ2, α2β3γ2, α3β3γ2 and α5β3γ2.
Cell pellets were suspended in Krebs-tris buffer (4.8 mM KCl, 1.2 mM CaCl2, 1.2 mM MgCl2, 120 mM NaCl, 15 mM Tris; pH 7.5; binding assay buffer), homogenized by polytron for ca. 20 sec on ice and centrifuged for 60 min at 4° C. (50000 g; Sorvall, rotor: SM24=20000 rpm). The cell pellets were re-suspended in Krebs-tris buffer and homogenized by polytron for ca. 15 sec on ice. Protein was measured (Bradford method, Bio-Rad) and aliquots of 1 mL were prepared and stored at −80° C.
Assays were incubated to equilibrium for 1 hour at 4° C. and harvested onto GF/C uni-filters (Packard) by filtration using a Packard harvester and washing with ice-cold wash buffer (50 mM Tris; pH 7.5). After drying, filter-retained radioactivity was detected by liquid scintillation counting. Ki values were calculated using Excel-Fit (Microsoft) and are the means of two determinations.
`Cc1onc(-c2ccc(F)cn2)c1/C=C/c1ncc(C(=O)NC2CC2)s1` [Example 79, 2-{(E)-2-[3-(5-Fluoro-pyridin-2-yl)-5-methyl-isoxazol-4-yl]-vinyl}-thiazole-5-carboxylic acid cyclopropylamide] had a pKi of 8.39.

In turn, `Cc1onc(-c2ccc(F)cn2)c1/C=C/c1ncc(C(=O)NCC(F)(F)F)s1` [Example 84, 2-{(E)-2-[3-(5-Fluoro-pyridin-2-yl)-5-methyl-isoxazol-4-yl]-vinyl}-thiazole-5-carboxylic acid (2,2,2-trifluoro-ethyl)-amide] showed a pKi of 8.39.

Still in this test, the particulars now being: human receptor α5β3γ2 transiently transfected in HEK293 cells; competition for [3H]flumazenil 0.5 nM; 1 hour at 4° C.; means of two determinations; read-out: hKi GABA A α5.
Turning to `CCCCc1noc(C)c1CCc1nc(C)c(C(=O)NC(CO)CO)s1` [Example 53, 2-[2-(3-Butyl-5-methyl-isoxazol-4-yl)-ethyl]-4-methyl-thiazole-5-carboxylic acid (2-hydroxy-1-hydroxymethyl-ethyl)-amide], the pKi was 7.73.

In the case of `CCCCc1noc(C)c1CCc1nc(C)c(C(=O)N[C@@H](C)CO)s1` [Example 54, 2-[2-(3-Butyl-5-methyl-isoxazol-4-yl)-ethyl]-4-methyl-thiazole-5-carboxylic acid ((S)-2-hydroxy-1-methyl-ethyl)-amide], the pKi was 7.80.

In the case of `CCCCc1noc(C)c1CCc1nc(C)c(C(=O)N[C@H](C)CO)s1` [Example 55, 2-[2-(3-Butyl-5-methyl-isoxazol-4-yl)-ethyl]-4-methyl-thiazole-5-carboxylic acid ((R)-2-hydroxy-1-methyl-ethyl)-amide], the pKi is 7.45.

On to `CCCCc1noc(C)c1CCc1nc(C)c(C(=O)NCC(C)O)s1` (stereo not shown) [Example 56, 2-[2-(3-Butyl-5-methyl-isoxazol-4-yl)-ethyl]-4-methyl-thiazole-5-carboxylic acid (2-hydroxy-propyl)-amide], for which the pKi was 7.77.

As for `CCCCc1noc(C)c1CCc1ncc(C(=O)NC(C)C)s1` [Example 57, 2-[2-(3-Butyl-5-methyl-isoxazol-4-yl)-ethyl]-thiazole-5-carboxylic acid isopropylamide], the pKi is 7.41.

For `CCCCc1noc(C)c1CCc1ncc(C(=O)NC(C)CO)s1` (stereo not shown) [Example 58, 2-[2-(3-Butyl-5-methyl-isoxazol-4-yl)-ethyl]-thiazole-5-carboxylic acid (2-hydroxy-1-methyl-ethyl)-amide], the pKi is 7.29.

For the compound `CCCCc1noc(C)c1CCc1ncc(C(=O)NC2CCOCC2)s1` [Example 59, 2-[2-(3-Butyl-5-methyl-isoxazol-4-yl)-ethyl]-thiazole-5-carboxylic acid (tetrahydro-pyran-4-yl)-amide], the pKi is 7.49.

`CCCCc1noc(C)c1CCc1ncc(C(=O)NC2CCOC2)s1` (stereo not shown) [Example 60, 2-[2-(3-Butyl-5-methyl-isoxazol-4-yl)-ethyl]-thiazole-5-carboxylic acid (tetrahydro-furan-3-yl)-amide]: the pKi is 7.45.

As to `CCCCc1noc(C)c1CCc1ncc(C(=O)N[C@@H](C)CO)s1` [Example 61, 2-[2-(3-Butyl-5-methyl-isoxazol-4-yl)-ethyl]-thiazole-5-carboxylic acid ((S)-2-hydroxy-1-methyl-ethyl)-amide], the pKi is 7.36.

As to `CCCCc1noc(C)c1CCc1ncc(C(=O)NCC(C)O)s1` (stereo not shown) [Example 62, 2-[2-(3-Butyl-5-methyl-isoxazol-4-yl)-ethyl]-thiazole-5-carboxylic acid (2-hydroxy-propyl)-amide], the pKi was 7.35.

On to `Cc1onc(-c2ccccc2)c1/C=C/c1ncc(C(=O)NC2CCOCC2)s1` [Example 63, 2-[(E)-2-(5-Methyl-3-phenyl-isoxazol-4-yl)-vinyl]-thiazole-5-carboxylic acid (tetra-hydro-pyran-4-yl)-amide], for which the pKi is 8.92.

Take `Cc1onc(-c2ccccc2)c1/C=C/c1ncc(C(=O)NC(C)C)s1` [Example 65, 2-[(E)-2-(5-Methyl-3-phenyl-isoxazol-4-yl)-vinyl]-thiazole-5-carboxylic acid isoprop-ylamide]: the pKi is 8.89.

As to `Cc1onc(-c2ccccc2)c1/C=C/c1ncc(C(=O)NC(C)CO)s1` (stereo not shown) [Example 66, 2-[(E)-2-(5-Methyl-3-phenyl-isoxazol-4-yl)-vinyl]-thiazole-5-carboxylic acid (2-hydroxy-1-methyl-ethyl)-amide], the pKi was 8.74.

With `Cc1onc(-c2ccccc2)c1/C=C/c1ncc(C(=O)NCCO)s1` [Example 67, 2-[(E)-2-(5-Methyl-3-phenyl-isoxazol-4-yl)-vinyl]-thiazole-5-carboxylic acid (2-hydroxy-ethyl)-amide], the pKi is 8.55.

On to `Cc1nc(/C=C/c2c(-c3ccccc3)noc2C)sc1C(=O)NC(C)C` [Example 68, 4-Methyl-2-[(E)-2-(5-methyl-3-phenyl-isoxazol-4-yl)-vinyl]-thiazole-5-carboxylic acid isopropylamide], for which the pKi is 9.40.

On to `Cc1nc(/C=C/c2c(-c3ccccc3)noc2C)sc1C(=O)NC1CCOC1` (stereo not shown) [Example 69, 4-Methyl-2-[(E)-2-(5-methyl-3-phenyl-isoxazol-4-yl)-vinyl]-thiazole-5-carboxylic acid (tetrahydro-furan-3-yl)-amide], for which the pKi was 9.52.

Turning to `Cc1nc(/C=C/c2c(-c3ccccc3)noc2C)sc1C(=O)NCCO` [Example 70, 4-Methyl-2-[(E)-2-(5-methyl-3-phenyl-isoxazol-4-yl)-vinyl]-thiazole-5-carboxylic acid (2-hydroxy-ethyl)-amide], the pKi was 9.30.

Regarding `Cc1nc(/C=C/c2c(-c3ccc(F)cn3)noc2C)sc1C(=O)NC(C)C` [Example 71, 2-{(E)-2-[3-(5-Fluoro-pyridin-2-yl)-5-methyl-isoxazol-4-yl]-vinyl}-4-methyl-thiazole-5-carboxylic acid isopropylamide], the pKi was 8.82.

As to `Cc1nc(/C=C/c2c(-c3ccc(F)cn3)noc2C)sc1C(=O)NC1CCOCC1` [Example 72, 2-{(E)-2-[3-(5-Fluoro-pyridin-2-yl)-5-methyl-isoxazol-4-yl]-vinyl}-4-methyl-thiazole-5-carboxylic acid (tetrahydro-pyran-4-yl)-amide], the pKi was 9.22.

For the compound `Cc1nc(/C=C/c2c(-c3ccc(F)cn3)noc2C)sc1C(=O)NC1CC1` [Example 73, 2-{(E)-2-[3-(5-Fluoro-pyridin-2-yl)-5-methyl-isoxazol-4-yl]-vinyl}-4-methyl-thiazole-5-carboxylic acid cyclopropylamide], the pKi is 8.80.

For the compound `Cc1nc(/C=C/c2c(-c3ccc(F)cn3)noc2C)sc1C(=O)NC(C)(C)CO` [Example 74, 2-{(E)-2-[3-(5-Fluoro-pyridin-2-yl)-5-methyl-isoxazol-4-yl]-vinyl}-4-methyl-thiazole-5-carboxylic acid (2-hydroxy-1,1-dimethyl-ethyl)-amide], the pKi is 8.08.

On to `Cc1nc(/C=C/c2c(-c3ccc(F)cn3)noc2C)sc1C(=O)NCC1CC1` [Example 75, 2-{(E)-2-[3-(5-Fluoro-pyridin-2-yl)-5-methyl-isoxazol-4-yl]-vinyl}-4-methyl-thiazole-5-carboxylic acid cyclopropylmethyl-amide], for which the pKi was 8.74.

Consider `Cc1nc(/C=C/c2c(-c3ccc(F)cn3)noc2C)sc1C(N)=O` [Example 76, 2-{(E)-2-[3-(5-Fluoro-pyridin-2-yl)-5-methyl-isoxazol-4-yl]-vinyl}-4-methyl-thiazole-5-carboxylic acid amide], for which the pKi is 8.39.

Turning to `Cc1onc(-c2ccc(F)cn2)c1/C=C/c1ncc(C(=O)NC2CCOCC2)s1` [Example 77, 2-{(E)-2-[3-(5-Fluoro-pyridin-2-yl)-5-methyl-isoxazol-4-yl]-vinyl}-thiazole-5-carboxylic acid (tetrahydro-pyran-4-yl)-amide], the pKi was 8.46.

For the compound `Cc1onc(-c2ccc(F)cn2)c1/C=C/c1ncc(C(=O)NC(C)C)s1` [Example 78, 2-{(E)-2-[3-(5-Fluoro-pyridin-2-yl)-5-methyl-isoxazol-4-yl}-vinyl]-thiazole-5-carboxylic acid isopropylamide], the pKi is 8.54.

For the compound `Cc1onc(-c2ccc(F)cn2)c1/C=C/c1ncc(C(=O)NC(C)(C)CO)s1` [Example 80, 2-{(E)-2-[3-(5-Fluoro-pyridin-2-yl)-5-methyl-isoxazol-4-yl]-vinyl}-thiazole-5-carboxylic acid (2-hydroxy-1,1-dimethyl-ethyl)-amide], the pKi is 7.76.

Turning to `Cc1onc(-c2ccc(F)cn2)c1/C=C/c1ncc(C(N)=O)s1` [Example 81, 2-{(E)-2-[3-(5-Fluoro-pyridin-2-yl)-5-methyl-isoxazol-4-yl]-vinyl}-thiazole-5-carboxylic acid amide], the pKi is 8.26.

For `Cc1onc(-c2ccc(F)cn2)c1/C=C/c1ncc(C(=O)NCC2CC2)s1` [Example 82, 2-{(E)-2-[3-(5-Fluoro-pyridin-2-yl)-5-methyl-isoxazol-4-yl]-vinyl}-thiazole-5-carboxylic acid cyclopropylmethyl-amide], the pKi was 8.33.

In the case of `Cc1onc(-c2ccc(F)cn2)c1/C=C/c1ncc(C(=O)N2CCS(=O)(=O)CC2)s1` [Example 83, (1,1-Dioxothiomorpholin-4-yl)-(2-{(E)-2-[3-(5-fluoro-pyridin-2-yl)-5-methyl-isoxazol-4-yl]-vinyl}-thiazol-5-yl)-methanone], the pKi was 7.56.
